The values that follow come from EP3782997A1, “FUSED PYRIMIDINE COMPOUNDS AND PHARMACEUTICAL COMPOSITIONS THEREOF FOR THE TREATMENT OF FIBROTIC DISEASES” (Galapagos N.V., priority 2019, dated 2021).

The target in the assay is hENPP2 (Homo sapiens, UniProt Q13822). Kind of assay: Human ENPP2 (hENPP2) biochemical assay using LPC as substrate. Particulars: 150 µM LPC (palmitoyl 16:0), 37°C for 30 min. The procedure, abridged: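 Enzyme at 1 or 3 µg/mL final in Tris-HCl pH 8.5, NaCl, KCl, CaCl2, fatty-acid-free BSA; reaction started with 150 µM LPC 16:0 (as added), 30 min at 37°C. Released choline developed with choline oxidase/peroxidase/TOOS/4-aminoantipyrine plus EGTA stop, read at 555 nm after 30 min; 1/3 dilutions from 50 µM give IC50.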
As to `C[C@@H]1C[C@H](N2Cc3cnc(Nc4ccc(S(F)(F)(F)(F)F)cc4)nc3C2)CCN1C(=O)c1ccc2[nH]nnc2c1` [compound 150, 1H-benzotriazol-5-yl-[(2R,4R)-2-methyl-4-[2-[4-(pentafluoro-λ^6-sulfanyl)anilino]-5,7-dihydropyrrolo[3,4-d]pyrimidin-6-yl]-1-piperidyl]methanone], the IC50 (usually the concentration that gives 50% inhibition) was 0.01 to 100 nM.
`COc1cc(Nc2ncc3c(n2)CN([C@@H]2CCN(C(=O)c4ccc5[nH]nnc5c4)[C@H](C)C2)C3)cc(OC)c1` [compound 151, 1H-benzotriazol-5-yl-[(2R,4R)-4-[2-(3,5-dimethoxyanilino)-5,7-dihydropyrrolo[3,4-d]pyrimidin-6-yl]-2-methyl-1-piperidyl]methanone] returned an IC50 of 0.01 to 100 nM.
In the case of `C[C@@H]1C[C@H](N2Cc3cnc(Nc4ccc(C(F)(F)F)cc4)nc3C2)CCN1C(=O)c1ccc2[nH]nnc2c1` [compound 152, 1H-benzotriazol-5-yl-[(2R,4R)-2-methyl-4-[2-[4-(trifluoromethyl)anilino]-5,7-dihydropyrrolo[3,4-d]pyrimidin-6-yl]-1-piperidyl]methanone], the IC50 lay in the range of 0.01 to 100 nM.
On to `Cc1cc(C)cc(Nc2ncc3c(n2)CN([C@@H]2CCN(C(=O)c4ccnc(NS(C)(=O)=O)c4)[C@H](C)C2)C3)c1` [compound 154, N-[4-[(2R,4R)-4-[2-(3,5-dimethylanilino)-5,7-dihydropyrrolo[3,4-d]pyrimidin-6-yl]-2-methyl-piperidine-1-carbonyl]-2-pyridyl]methanesulfonamide], for which the IC50 lay in the range of 0.01 to 100 nM.
On to `Cc1cc(C)cc(Nc2ncc3c(n2)CN([C@@H]2CCN(C(=O)c4ccc(NS(C)(=O)=O)nc4)[C@H](C)C2)C3)c1` [compound 155, N-[5-[(2R,4R)-4-[2-(3,5-dimethylanilino)-5,7-dihydropyrrolo[3,4-d]pyrimidin-6-yl]-2-methyl-piperidine-1-carbonyl]-2-pyridyl]methanesulfon amide], for which the IC50 fell in the range of 0.01 to 100 nM.
In turn, `Cc1cc(C)cc(Nc2ncc3c(n2)CN([C@@H]2CCN(C(=O)c4ccc5c(c4)CC(=O)N5)[C@H](C)C2)C3)c1` [compound 156, 5-[(2R,4R)-4-[2-(3,5-dimethylanilino)-5,7-dihydropyrrolo[3,4-d]pyrimidin-6-yl]-2-methyl-piperidine-1-carbonyl]indolin-2-one] came in with an IC50 of 0.01 to 100 nM.
The same measure for `Cc1cc(C)cc(Nc2ncc3c(n2)CN([C@@H]2CCN(C(=O)c4ccc5[nH]c(=O)[nH]c5c4)[C@H](C)C2)C3)c1` [compound 157, 5-[(2R,4R)-4-[2-(3,5-dimethylanilino)-5,7-dihydropyrrolo[3,4-d]pyrimidin-6-yl]-2-methyl-piperidine-1-carbonyl]-1,3-dihydrobenzimidazol-2-one]: 0.01 to 100 nM; for `Cc1cc(C)cc(Nc2ncc3c(n2)CN([C@@H]2CCN(C(=O)c4ccc(S(N)(=O)=O)nc4)[C@H](C)C2)C3)c1` [compound 159, 5-[(2R,4R)-4-[2-(3,5-dimethylanilino)-5,7-dihydropyrrolo[3,4-d]pyrimidin-6-yl]-2-methyl-piperidine-1-carbonyl]pyridine-2-sulfonamide]: 500 to 1000 nM.
The same measure for `Cc1cc(C)cc(Nc2ncc3c(n2)CN([C@@H]2CCN(C(=O)c4cn(C)nn4)[C@H](C)C2)C3)c1` [compound 161, [(2R,4R)-4-[2-(3,5-dimethylanilino)-5,7-dihydropyrrolo[3,4-d]pyrimidin-6-yl]-2-methyl-1-piperidyl]-(1-methyltriazol-4-yl)methanone]: over 1000 nM.
Next, `Cc1cc(C)cc(Nc2ncc3c(n2)CCN(C2CCN(C(=O)c4c[nH]nn4)CC2)C3)c1` [compound 162, [4-[2-(3,5-dimethylanilino)-7,8-dihydro-5H-pyrido[4,3-d]pyrimidin-6-yl]-1-piperidyl]-(1H-triazol-4-yl)methanone]: over 1000 nM; `Cc1cc(C)cc(Nc2ncc3c(n2)CN([C@@H]2CCN(C(=O)c4cc5nn[nH]c5cc4C)[C@H](C)C2)C3)c1` [compound 163, [(2R,4R)-4-[2-(3,5-dimethylanilino)-5,7-dihydropyrrolo[3,4-d]pyrimidin-6-yl]-2-methyl-1-piperidyl]-(6-methyl-1H-benzotriazol-5-yl)methanone]: 0.01 to 100 nM; `C[C@@H]1C[C@@H](N2Cc3cnc(Nc4ccccc4)nc3C2)CCN1C(=O)c1ccc2[nH]nnc2c1` [compound 165, [(2R,4S)-4-(2-anilino-5,7-dihydropyrrolo[3,4-d]pyrimidin-6-yl)-2-methyl-1-piperidyl]-(1H-benzotriazol-5-yl)methanone]: over 1000 nM.
As for `C[C@@H]1C[C@H](N2Cc3cnc(Nc4ccccc4)nc3C2)CCN1C(=O)c1ccc2[nH]nnc2c1` [compound 166, [(2R,4R)-4-(2-anilino-5,7-dihydropyrrolo[3,4-d]pyrimidin-6-yl)-2-methyl-1-piperidyl]-(1H-benzotriazol-5-yl)methanone], the IC50 was in the range of 100 to 500 nM.
As for `Cc1cc(C)cc(Nc2ncc3c(n2)CN([C@@H]2CCN(C(=O)c4ccc5[nH]nnc5c4C)[C@H](C)C2)C3)c1` [compound 168, [(2R,4R)-4-[2-(3,5-dimethylanilino)-5,7-dihydropyrrolo[3,4-d]pyrimidin-6-yl]-2-methyl-1-piperidyl]-(4-methyl-1H-benzotriazol-5-yl)methanone], the IC50 was 0.01 to 100 nM.
In turn, `COc1cccc(Nc2ncc3c(n2)CN([C@H]2CCN(C(=O)c4ccc5[nH]nnc5c4)[C@H](C)C2)C3)c1` [compound 170, 1H-benzotriazol-5-yl-[(2R,4S)-4-[2-(3-methoxyanilino)-5,7-dihydropyrrolo[3,4-d]pyrimidin-6-yl]-2-methyl-1-piperidyl]methanone] registered an IC50 of 100 to 500 nM.
In turn, `COc1cccc(Nc2ncc3c(n2)CN([C@@H]2CCN(C(=O)c4ccc5[nH]nnc5c4)[C@H](C)C2)C3)c1` [compound 171, 1H-benzotriazol-5-yl-[(2R,4R)-4-[2-(3-methoxyanilino)-5,7-dihydropyrrolo[3,4-d]pyrimidin-6-yl]-2-methyl-1-piperidyl]methanone] came in with an IC50 of 0.01 to 100 nM.
In turn, `C[C@@H]1C[C@H](N2Cc3cnc(Nc4ccc(F)cc4)nc3C2)CCN1C(=O)c1c[nH]nn1` [compound 173, [(2R,4R)-4-[2-(4-fluoroanilino)-5,7-dihydropyrrolo[3,4-d]pyrimidin-6-yl]-2-methyl-1-piperidyl]-(1H-triazol-4-yl)methanone] had a 50% inhibitory concentration (IC50) of over 1000 nM.
Next, `Cc1cc(C)cc(Nc2ncc3c(n2)CCN(C2CCN(C(=O)c4ccnc(NS(C)(=O)=O)c4)CC2)C3)c1` [compound 174, N-[4-[4-[2-(3,5-dimethylanilino)-7,8-dihydro-5H-pyrido[4,3-d]pyrimidin-6-yl]piperidine-1-carbonyl]-2-pyridyl]methanesulfonamide]: over 1000 nM; `C[C@@H]1C[C@H](N2Cc3cnc(Nc4ccc(C(F)(F)F)cc4)nc3C2)CCN1C(=O)c1c[nH]nn1` [compound 175, [(2R,4R)-2-methyl-4-[2-[4-(trifluoromethyl)anilino]-5,7-dihydropyrrolo[3,4-d]pyrimidin-6-yl]-1-piperidyl]-(1H-triazol-4-yl)methanone]: 0.01 to 100 nM.
Regarding `Cc1cc(C)cc(Nc2ncc3c(n2)CN([C@@H]2CCN(C(=O)c4nn[nH]c4C)[C@H](C)C2)C3)c1` [compound 176, [(2R,4R)-4-[2-(3,5-dimethylanilino)-5,7-dihydropyrrolo[3,4-d]pyrimidin-6-yl]-2-methyl-1-piperidyl]-(5-methyl-1H-triazol-4-yl)methanone], the 50% inhibitory concentration (IC50) is 0.01 to 100 nM.
For the compound `C[C@@H]1C[C@H](N2Cc3cnc(Nc4ccc(S(F)(F)(F)(F)F)cc4)nc3C2)CCN1C(=O)c1ccnc(NS(C)(=O)=O)c1` [compound 177, N-[4-[(2R,4R)-2-methyl-4-[2-[4-(pentafluoro-λ^6-sulfanyl)anilino]-5,7-dihydropyrrolo[3,4-d]pyrimidin-6-yl]piperidine-1-carbonyl]-2-pyridyl]methanesulfonamide], the IC50 lay within 0.01 to 100 nM.
The same measure for `C[C@@H]1C[C@@H](N2Cc3cnc(Nc4ccc(S(F)(F)(F)(F)F)cc4)nc3C2)CCN1C(=O)c1ccnc(NS(C)(=O)=O)c1` [compound 178, N-[4-[(2R,4S)-2-methyl-4-[2-[4-(pentafluoro-λ^6-sulfanyl)anilino]-5,7-dihydropyrrolo[3,4-d]pyrimidin-6-yl]piperidine-1-carbonyl]-2-pyridyl]methanesulfonamide]: 0.01 to 100 nM; for `C[C@@H]1C[C@H](N2Cc3cnc(Nc4ccc(Cl)cc4)nc3C2)CCN1C(=O)c1ccnc(NS(C)(=O)=O)c1` [compound 179, N-[4-[(2R,4R)-4-[2-(4-chloroanilino)-5,7-dihydropyrrolo[3,4-d]pyrimidin-6-yl]-2-methyl-piperidine-1-carbonyl]-2-pyridyl]methanesulfonamide]: 0.01 to 100 nM; for `C[C@@H]1C[C@@H](N2Cc3cnc(Nc4ccc(Cl)cc4)nc3C2)CCN1C(=O)c1ccnc(NS(C)(=O)=O)c1` [compound 180, N-[4-[(2R,4S)-4-[2-(4-chloroanilino)-5,7-dihydropyrrolo[3,4-d]pyrimidin-6-yl]-2-methyl-piperidine-1-carbonyl]-2-pyridyl]methanesulfonamide]: 100 to 500 nM.
`Cc1ccc(Nc2ncc3c(n2)CN([C@@H]2CCN(C(=O)c4ccnc(NS(C)(=O)=O)c4)[C@H](C)C2)C3)cc1` [compound 181, N-[4-[(2R,4R)-2-methyl-4-[2-(4-methylanilino)-5,7-dihydropyrrolo[3,4-d]pyrimidin-6-yl]piperidine-1-carbonyl]-2-pyridyl]methanesulfonamide] returned an IC50 of 0.01 to 100 nM.
The same measure for `Cc1ccc(Nc2ncc3c(n2)CN([C@H]2CCN(C(=O)c4ccnc(NS(C)(=O)=O)c4)[C@H](C)C2)C3)cc1` [compound 182, N-[4-[(2R,4S)-2-methyl-4-[2-(4-methylanilino)-5,7-dihydropyrrolo[3,4-d]pyrimidin-6-yl]piperidine-1-carbonyl]-2-pyridyl]methanesulfonamide]: 500 to 1000 nM.
